Laboratory results published in patent publication US6362166B1, “Antipicornaviral compounds and methods for their use and preparation” (Agouron Pharmaceuticals, Inc., priority 1996, dated 2002).
Read-outs that look alike come from different tables or passages of the source.

Experiments:
HI-HeLa cells = assay: Cytotoxicity in mock-infected HI-HeLa cells (antirhinoviral assay, XTT); format: cell-based
Description: (§1) HI-HeLa cells were infected with HRV-14 at a multiplicity of infection (m.o.i.) of 0.13 (virus particles/cell) or mock-infected with medium only. Infected or mock-infected cells were resuspended at 8×10^5 cells per mL and incubated with appropriate concentration of compounds of formulas I and II. Two days later, XTT/PMS was added to test plates and the amount of formazan produced was quantified spectrophotometrically at 450/650 nm. […] The therapeutic index (TI) was calculated by dividing the CC50 by the EC50.
(§2) All strains of human rhinovirus (HRV) for use in this assay were purchased from American Type Culture Collection (ATCC), except for HRV serotype-14, which was produced from the infectious cDNA clone, constructed and supplied to us by Dr. Roland Rueckert at the Institue for Molecular Virology, University of Wisconsin, Madison, Wisc. HRV stocks were propagated, and antiviral assays were perforemd in HI-HeLa cells (ATCC). Cells were grwon in Minimal Essential Medium, available from Life Technologies, with 10% fetal bovine serum.

HRV-14 = assay: Antirhinoviral HI-HeLa Cell Culture Assay (Cell Protection Assay, XTT dye reduction); format: cell-based, human rhinovirus (HRV) serotype-14; settings: HI-HeLa cells infected with HRV-14, m.o.i. 0.13; two days; XTT; read-out: EC50
Description: In the Cell Protection Assay, the ability of compounds to protect cells against HRV infection was measured by the XTT dye reduction method. This method is described in Weislow, O. S., R. Kiser, D. L. Fine, J. Bader, R. H. Shoemaker, and M. R. Boyd, J. Natl. Cancer Inst. 1989, 81, 577-586, which is incorporated herein by reference.
as §1, §2
The compounds were tested against control compounds WIN 51711, WIN 52084, and WIN 54954, all obtained from Sterling-Winthrop Pharmaceuticals, and control compound Pirodavir, obtained from Janssen Pharmaceuticals.

[1] = target: T1, Recombinant Rhinovirus 3C protease (RVP) serotype-14 (Human rhinovirus 14, UniProt P03303); assay: Inhibition of Rhinovirus Protease (fluorescence resonance energy transfer assay), serotype 14; format: biochemical, human rhinovirus (HRV); settings: RVP serotype-14; for kobs/I: progress curves in enzyme start experiments; for Ki: 10 minute preincubation, substrate start, read-out: INHIB (Ki); for INHIB (percent inhibition): 10 minute preincubation with 50 nM RVP
T1 construct: Recombinant Rhinovirus 3C proteases from serotypes 14, 16, 2 or 89; made in house
Description: Stock solution (50 mM, in DMSO) of various compounds were prepared; dilutions were in the same solvent. […] Assays contained 2% DMSO, 50 mM tris pH 7.6, 1 mM EDTA, a compound at the indicated concentrations, approximately 1 μM substrate, and 50-100 nM protease. […] The kobs/I values were obtained from reactions initiated by addition of enzyme rather than substrate. RVP activity is measured in the fluorescence resonance energy transfer assay. […] In the uncleaved peptide, the EDANS fluorescence was quenched by the proximal DABCYL moeity. When the peptide was cleaved, the quenching was relieved, and activity was measured as an increase in fluorescence signal.
In the above table, all data is RVP serotype-14 unless otherwise noted in parentheses. All strains of human rhinovirus (HRV) were purchased from American Type Culture Collection (ATCC), except for serotype 14, which was produced from the infectious cDNA clone constructed and supplied to us by Dr. Roland Rueckert at the Institute for Molecular Virology, University of Wisconsin, Madison, Wisc. […] The data in the column designated kobs/I was measured from progress curves in enzyme start experiments.

[2] = mock-infected HI-HeLa cells, two days, XTT, read-out: CC50

T1 sequence (P03303 1538-1719): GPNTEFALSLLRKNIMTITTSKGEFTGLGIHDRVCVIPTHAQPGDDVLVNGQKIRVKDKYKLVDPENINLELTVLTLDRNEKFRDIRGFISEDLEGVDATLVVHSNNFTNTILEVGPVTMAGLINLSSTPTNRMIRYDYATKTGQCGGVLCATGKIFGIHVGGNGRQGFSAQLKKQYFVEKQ

SMILES	CC50 (HI-HeLa cells; [2])	EC50 (HRV-14)	kobs/I [1]	CC50 (HI-HeLa cells)	Ki [1]	INHIB (percent inhibition) ([1]; 0.1 μM compound)	INHIB (percent inhibition) ([1]; 1 μM compound)
CCOC(=O)/C(C)=C/[C@H](CCC(N)=O)NC(=O)[C@H](Cc1ccc(C)cc1)NC(=O)[C@@H](NC(=O)SC1CCCC1)C(C)(C)C [Compound 175, Ethyl-2-Methyl-3-[Cyclopentylthiocarbonyl-L-α-(t-Butyl-Gly)-L-(4-Me-Phe)-L-Gln]-E-Propenoate]	> 100 µM	0.18 µM	124,000 M-1 sec-1				
CC(C)C[C@H](NC(=O)OCc1ccccc1)C(=O)N[C@@H](Cc1ccccc1)C(=O)N[C@H](/C=C/C(=O)c1ccco1)CCC(N)=O [Compound 49]		2.4 µM	460,000 M-1 sec-1	19.1 µM			
CCOC(=O)/C=C/[C@H](CCC(N)=O)NC(=O)[C@H](Cc1ccc(O)cc1)NC(=O)[C@H](CC(C)C)NC(=O)OCc1ccccc1 [Compound 53]		5.3 µM	11,320 M-1 sec-1	> 320 µM			
CC(C)C[C@H](NC(=O)OCc1ccccc1)C(=O)N[C@@H](Cc1ccccc1)C(=O)N[C@H](/C=C/C(=O)Nc1ccccc1)CCC(N)=O [Compound 59]	> 320 µM	> 320 µM	200 M⁻¹ s⁻¹		2 µM		
CCOC(=O)C=CC(CCC(N)=O)NC(=O)C(Cc1ccccc1)NC(=O)C(NC(=O)OCc1ccccc1)c1ccccc1 (stereo not drawn) [Compound 71]		14.1 µM	20,650 M-1 sec-1	> 320 µM			
CC(C)C[C@H](NC(=O)OCc1ccccc1)C(=O)N[C@@H](Cc1ccccc1)C(=O)N[C@H](/C=C/C(=O)N1CCCO1)CCC(N)=O [Compound 79]	> 320 µM	45 µM	13,900 M-1 sec-1				
CCOC(=O)/C=C/[C@H](CCC(N)=O)NC(=O)[C@H](Cc1ccc(F)cc1)NC(=O)[C@@H](NC(=O)SC1CCCC1)C(C)(C)Sc1ccc([N+](=O)[O-])cc1 [Compound 185]		0.5 µM	600,000 M-1 sec-1	> 100 µM			
CCOC(=O)/C=C/[C@H](COC(=O)NC(=O)CCl)NC(=O)[C@H](Cc1ccccc1)NC(=O)[C@H](CC(C)C)NC(=O)OCc1ccccc1 [Compound 122]		1.78 µM	1,252 M-1 sec-1	10 µM			
CC(C)C[C@H](NC(=O)OCc1ccccc1)C(=O)N[C@@H](Cc1ccccc1)C(=O)N[C@H](/C=C/C=O)CCC(N)=O [Compound 81]	112 µM	8 µM	124,000 M-1 sec-1				
CCOC(=O)/C=C/[C@H](CCC(N)=O)NC(=O)[C@H](Cc1ccc(Cl)cc1)NC(=O)c1cc2c(OC)cccc2[nH]1 [Compound 26, Ethyl-3-[N-(4-Methoxyindole-2-Carbonyl)-L-(4-Cl-Phe)-L-Gln]-E-Propenoate]		2 µM	5,400 M-1 sec-1	44.7 µM		52(0.1) percent	
CCOC(=O)/C=C/[C@H](CCC(N)=O)NC(=O)[C@H](CC(C)C)NC(=O)[C@H](CC(C)C)NC(=O)OCc1ccccc1 [Compound 141]		5.4 µM	2,309 M-1 sec-1	> 320 µM			
CC(C)C[C@H](NC(=O)OCc1ccccc1)C(=O)N[C@@H](Cc1ccccc1)C(=O)N[C@H](/C=C/C(=O)N1CCCCO1)CCC(N)=O [Compound 84]	> 320 µM	16 µM	18,650 M-1 sec-1				
CSc1cccc2c1N(C(=O)/C=C/[C@H](CCC(N)=O)NC(=O)[C@H](Cc1ccccc1)NC(=O)[C@H](CC(C)C)NC(=O)OCc1ccccc1)CC2 [Compound 96]	100 µM	19.1 µM	300 M⁻¹ s⁻¹				
CCOC(=O)/C=C/[C@H](CCC(N)=O)NC(=O)[C@H](C)NC(=O)[C@H](CC(C)C)NC(=O)OCc1ccccc1 [Compound 109]		20 µM	1,348 M-1 sec-1	> 320 µM			
CC(C)C[C@H](NC(=O)OCc1ccccc1)C(=O)N[C@@H](Cc1ccccc1)C(=O)N[C@H](/C=C/C(=O)OCC1CCCC1)CCC(N)=O [Compound 19, Cyclopentylmethyl-3-(CBZ-L-Leu-L-Phe-L-Gln)-E-Propenoate]		1.35 µM	7,900 M-1 sec-1	> 100 µM	35 µM		
CCOC(=O)/C=C/[C@H](CCC(N)=O)NC(=O)[C@H](Cc1ccccc1)NC(=O)[C@H](CC(C)C)NC(=O)C(C)C [Compound 117]		1 µM	18,760 M-1 sec-1	> 320 µM			
CC(C)C[C@H](NC(=O)OCc1ccccc1)C(=O)N[C@@H](Cc1ccccc1)C(=O)N[C@H](/C=C/S(C)(=O)=O)CCC(N)=O [Compound 9, Methyl-[2-(CBZ-L-Leu-L-Phe-L-Gln)-E-Vinyl]Sulfone]		> 320 µM	160 M⁻¹ s⁻¹	> 320 µM			20(1) percent
CC(C)C[C@H](NC(=O)OCc1ccccc1)C(=O)N[C@@H](Cc1ccccc1)C(=O)N[C@H](/C=C/C(=O)N1CCc2cc(Cl)ccc21)CCC(N)=O [Compound 92]	56 µM	5.6 µM	445 M⁻¹ s⁻¹				
CCN(CC)c1ccc(C(=O)/C=C/[C@H](CCC(N)=O)NC(=O)[C@H](Cc2ccccc2)NC(=O)[C@H](CC(C)C)NC(=O)OCc2ccccc2)cc1 [Compound 43]		10 µM	4,500 M-1 sec-1	18 µM			
CCOC(=O)/C=C/[C@H](CCC(N)=O)NC(=O)[C@@H](NC(=O)[C@H](CC(C)C)NC(=O)OCc1ccccc1)C(C)O (stereo partly drawn) [Compound 134]		56.2 µM	1,769 M-1 sec-1	> 320 µM			
COc1ccc(C(=O)/C=C/[C@H](CCC(N)=O)NC(=O)[C@H](Cc2ccccc2)NC(=O)[C@H](CC(C)C)NC(=O)OCc2ccccc2)cc1 [Compound 42]		22.4 µM	150,000 M-1 sec-1	100 µM			
CCOC(=O)/C=C/[C@H](CCC(N)=O)NC(=O)[C@H](Cc1ccc(OC(C)=O)cc1)NC(=O)[C@H](CC(C)C)NC(=O)OCc1ccccc1 [Compound 100]	> 320 µM	11.1 µM	1,200 M-1 sec-1				
CCOC(=O)/C=C/[C@H](CCC(N)=O)NC(=O)[C@H](CSC)NC(=O)[C@H](CC(C)C)NC(=O)OCc1ccccc1 [Compound 142]		8.9 µM	2,929 M-1 sec-1	> 320 µM			
CCOC(=O)/C=C/[C@H](CCC(N)=O)NC(=O)[C@H](Cc1ccccc1)NC(=O)[C@H](C)NC(=O)OCc1ccccc1 [Compound 101]	> 320 µM	2 µM	11,288 M-1 sec-1				
CCOC(=O)/C=C/[C@H](CCC(N)=O)NC(=O)[C@H](Cc1ccc(OCC)cc1)NC(=O)[C@H](CC(C)C)NC(=O)OCc1ccccc1 [Compound 136]		> 320 µM	4,210 M-1 sec-1	> 320 µM			
CCOC(=O)/C=C/[C@H](CCC(N)=O)NC(=O)[C@H](Cc1ccccc1)NC(=O)[C@H](CC(C)C)NC(=O)OC [Compound 110]		1.3 µM	9,072 M-1 sec-1	> 320 µM			
CC(C)C[C@H](NC(=O)OCc1ccccc1)C(=O)N[C@@H](Cc1ccccc1)C(=O)N[C@H](/C=C/C(=O)OC1CCCC1)CCC(N)=O [Compound 18, Cyclopentyl-3-(CBZ-L-Leu-L-Phe-L-Gln)-E-Propenoate]		0.64 µM	7,700 M-1 sec-1	> 100 µM	15.3 µM		
CC(C)CC(NC(=O)OCc1ccccc1)C(=O)NC(Cc1ccccc1)C(=O)NC(C=CC(=O)N1CCC(O)C1)CCC(N)=O (stereo not drawn) [Compound 39]		> 320 µM	1,200 M-1 sec-1	> 320 µM			
CCOC(=O)/C(C)=C/[C@H](CCC(N)=O)NC(=O)[C@H](Cc1ccccc1)NC(=O)[C@H](CC(C)C)NC(=O)OCc1ccccc1 [Compound 82]		3 µM	7,300 M-1 sec-1	> 320 µM	26 µM		
CCOC(=O)/C=C/[C@H](CCC(N)=O)NC(=O)[C@H](Cc1ccccc1)NC(=O)[C@H](CC(C)C)NC(=O)c1ccccc1 [Compound 67]		5.2 µM	9,600 M-1 sec-1	> 320 µM			
